Measured values taken from US4285941A, “Cephalosporin compounds and antibacterial drugs containing the same” (Eisai Co., Ltd., priority 1979, dated 1981).

Legend:
Assay in all cases: Minimal inhibitory concentration (MIC), standard agar dilution method
Type in all cases: cell-based
[1] = system: Serratia marcescens ES-75; conditions: ES75, Mueller Hinton agar, 37° C., 18 hours, Examples 1, 2, 4, 5, 6, 8 and 22 as sodium salts, others as free carboxylic acids
Protocol: (§1) The compounds obtained in these examples were tested for their antibacterial activities in vitro. Minimal inhibitory concentration (MIC) was determined by the standard agar dilution method of the Japan Society of Chemotherapy. Compounds were dissolved in appropriate solvents (sterilized water for sodium salts and acetone-water [1:1] for free acids) and serial two-fold dilutions were made. Sodium salt of Cefazolin was chosen as the control compound. One-ml aliquots of each dilution were mixed with 9 ml of Mueller Hinton agar in petri-dishes to make agar plates containing the compound at serially diluted concentrations. After agar hardened, plates were put in an incubator at 37° C. for 1.5-2 hours with the lids slightly open to evaporate acetone off the plates. Test organisms were grown for 18 hours at 37° C. in Trypticase Soy broth and diluted in saline to approximately 10^6 colony forming units per ml. A loopful of each cell suspension was applied on the agar plate mentioned above and the plates were incubated for 18 hours at 37° C. before MIC was determined. MIC values of the compounds of Examples 1, 2, 4, 5, 6, 8 and 22 were determined as their sodium salts and those of other compounds as free carboxylic acids.

Proteus morganii EP-14 = conditions: Morganella morganii, EP14; Mueller Hinton agar, 37° C., 18 hours; Examples 1, 2, 4, 5, 6, 8 and 22 as sodium salts, others as free carboxylic acids
Protocol: as §1

[2] = system: Pseudomonas aeruginosa EP-172; conditions: EP172, Mueller Hinton agar, 37° C., 18 hours, Examples 1, 2, 4, 5, 6, 8 and 22 as sodium salts, others as free carboxylic acids
Protocol: as §1

Escherichia coli NIHJ = conditions: Mueller Hinton agar, 37° C., 18 hours, Examples 1, 2, 4, 5, 6, 8 and 22 as sodium salts, others as free carboxylic acids
Protocol: as §1

[3] = system: Klebsiella pneumoniae EK-6; conditions: EK6, Mueller Hinton agar, 37° C., 18 hours, Examples 1, 2, 4, 5, 6, 8 and 22 as sodium salts, others as free carboxylic acids
Protocol: as §1

[4] = system: Staphylococcus aureus 209-P; conditions: Mueller Hinton agar, 37° C., 18 hours, Examples 1, 2, 4, 5, 6, 8 and 22 as sodium salts, others as free carboxylic acids
Protocol: as §1

| Compound | MIC [1] | MIC (Proteus morganii EP-14) | MIC [2] | MIC (Escherichia coli NIHJ) | MIC [3] | MIC [4] |
| --- | --- | --- | --- | --- | --- | --- |
| Cc1nnc(SCC2=C(C(=O)O)N3C(=O)[C@@H](NC(=O)[C@H](NC(=O)c4coc5cc(O)c(O)cc5c4=O)c4ccccc4)[C@H]3SC2)s1 [Example 2, 7β-[D-2-(6,7-Dihydroxychromone-3-carboxamido)-2-phenyl-acetamido]-3-[(5-methyl-1,3,4-thiadiazol-2-yl)thiomethyl]-3-cephem-4-carboxylic acid] | ≤ 0.1 µg/mL | 0.8 µg/mL | 3.13 µg/mL | 0.8 µg/mL | ≤ 0.1 µg/mL | 1.56 µg/mL |
| Cn1nnnc1SCC1=C(C(=O)O)N2C(=O)[C@@H](NC(=O)[C@H](NC(=O)c3coc4cc(O)c(O)cc4c3=O)c3ccc(O)cc3)[C@H]2SC1 [Example 3, 7β-[D-2-(6,7-Dihydroxychromone-3-carboxamido)-2-(4-hydroxyphenyl)acetamido]-3-[(1-methyltetrazol-5-yl)thiomethyl]-3-cephem-4-carboxylic acid] | ≤ 0.1 µg/mL | 0.4 µg/mL | 0.4 µg/mL | 0.2 µg/mL | ≤ 0.1 µg/mL | 0.8 µg/mL |
| CC(=O)Oc1cc2occ(C(=O)N[C@@H](C(=O)N[C@@H]3C(=O)N4C(C(=O)O)=C(CSc5nnc(C)s5)CS[C@H]34)c3ccccc3)c(=O)c2cc1OC(C)=O [Example 6, 7β-[D-2-(6,7-Diacetoxychromone-3-carboxamido)-2-phenylacetamido]-3-[(5-methyl-1,3-4-thiadiazol-2-yl)thiomethyl]-3-cephem-4-carboxylic acid] | ≤ 0.1 µg/mL | 0.8 µg/mL | 3.13 µg/mL | 0.8 µg/mL | ≤ 0.1 µg/mL | 1.56 µg/mL |
| CC(=O)Oc1cc2occ(C(=O)N[C@@H](C(=O)N[C@@H]3C(=O)N4C(C(=O)O)=C(CSc5nnnn5C)CS[C@H]34)c3ccc(O)cc3)c(=O)c2cc1OC(C)=O [Example 7, 7β-[D-2-(6,7-Diacetoxychromone-3-carboxamido)-2-(4-hydroxyphenyl)acetamido]-3-[(1-methyltetrazol-5-yl)thiomethyl]-3-cephem-4-carboxylic acid] | ≤ 0.1 µg/mL | 0.4 µg/mL | 0.4 µg/mL | ≤ 0.1 µg/mL | ≤ 0.1 µg/mL | 1.56 µg/mL |
| CC(=O)Oc1cc2occ(C(=O)N[C@@H](C(=O)N[C@@H]3C(=O)N4C(C(=O)O)=C(CSc5nnc(C)s5)CS[C@H]34)c3ccc(O)cc3)c(=O)c2cc1OC(C)=O [Example 8, 7β-[D-2-(6,7-Diacetoxychromone-3-carboxamido)-2-(4-hydroxyphenyl)acetamido]-3-[(5-methyl-1,3,4-thiadiazol-2-yl)thiomethyl]-3-cephem-4-carboxylic acid] | ≤ 0.1 µg/mL | 1.56 µg/mL | 1.56 µg/mL | 0.8 µg/mL | ≤ 0.1 µg/mL | 3.13 µg/mL |
| Cn1nnnc1SCC1=C(C(=O)O)N2C(=O)[C@@H](NC(=O)[C@H](NC(=O)c3coc4c(O)c(O)ccc4c3=O)c3ccc(O)cc3)[C@H]2SC1 [Example 9, 7β-[D-2-(7,8-Dihydroxychromone-3-carboxamido)-2-(4-hydroxyphenyl)acetamido]-3-[(1-methyltetrazol-5-yl)thiomethyl]-3-cephem-4-carboxylic acid] | 3.13 µg/mL | 12.5 µg/mL | 6.25 µg/mL | 1.56 µg/mL | ≤ 0.1 µg/mL | 0.8 µg/mL |
| CC(=O)Oc1ccc2c(=O)c(C(=O)N[C@@H](C(=O)N[C@@H]3C(=O)N4C(C(=O)O)=C(CSc5nnc(C)s5)CS[C@H]34)c3ccccc3)coc2c1OC(C)=O [Example 10, 7β-[D-2-(7,8-Diacetoxychromone-3-carboxamido)-2-phenyl-acetamido]-3-[(5-methyl-1,3,4-thiadiazol-2-yl)thiomethyl]-3-cephem-4-carboxylic acid] | 0.2 µg/mL | 1.56 µg/mL | 1.56 µg/mL | 0.8 µg/mL | ≤ 0.1 µg/mL | 0.8 µg/mL |
| CC(=O)Oc1ccc2c(=O)c(C(=O)N[C@@H](C(=O)N[C@@H]3C(=O)N4C(C(=O)O)=C(CSc5nnnn5C)CS[C@H]34)c3ccc(O)cc3)coc2c1OC(C)=O [Example 11, 7β-[D-2-(7,8-Diacetoxychromone-3-carboxamido)-2-(4-hydroxyphenyl)acetamido] -3-[(1-methyltetrazol-5-yl)thiomethyl]-3-cephem-4-carboxylic acid] | 1.56 µg/mL | 25 µg/mL | 6.25 µg/mL | 0.8 µg/mL | ≤ 0.1 µg/mL | 0.8 µg/mL |
| CC(=O)Oc1ccc2c(=O)c(C(=O)N[C@@H](C(=O)N[C@@H]3C(=O)N4C(C(=O)O)=C(CSc5nnc(C)s5)CS[C@H]34)c3ccc(O)cc3)coc2c1OC(C)=O [Example 12, 7β[D-2-(7,8-Diacetoxychromone-3-carboxamido)-2-(4-hydroxyphenyl)acetamido]-3-[(5-methyl-1,3,4-thiadiazol-2-yl)thiomethyl]-3-cephem-4-carboxylic acid] | 0.2 µg/mL | 3.13 µg/mL | 1.56 µg/mL | 1.56 µg/mL | ≤ 0.1 µg/mL | 1.56 µg/mL |
| Cn1nnnc1SCC1=C(C(=O)O)N2C(=O)[C@@H](NC(=O)[C@H](NC(=O)c3coc4cc(O)ccc4c3=O)c3ccc(O)cc3)[C@H]2SC1 [Example 13, 7β-[D-2-(7-Hydroxychromone-3-carboxamido)-2-(4-hydroxyphenyl)acetamido]-3-[(1-methyltetrazol-5-yl)thiomethyl]-3-cephem-4-carboxylic acid] | 12.5 µg/mL | 25 µg/mL | 50 µg/mL | 6.25 µg/mL | 12.5 µg/mL | 0.4 µg/mL |
| Cn1nnnc1SCC1=C(C(=O)O)N2C(=O)[C@@H](NC(=O)[C@H](NC(=O)c3coc4ccccc4c3=O)c3ccc(O)cc3)[C@H]2SC1 [Example 15, 7β-[D-2-(Chromone-3-carboxamido)-2-(4-hydroxyphenyl)acetamido]-3-[(1-methyltetrazol-5-yl)thiomethyl]-3-cephem-4-carboxylic acid] | 25 µg/mL | 25 µg/mL | 100 µg/mL | 6.25 µg/mL | 12.5 µg/mL | 0.4 µg/mL |
| Cn1nnnc1SCC1=C(C(=O)O)N2C(=O)[C@@H](NC(=O)[C@H](NC(=O)c3coc4ccccc4c3=O)c3ccccc3)[C@H]2SC1 [Example 16, 7β-[D-2-(Chromone-3-carboxamido)-2-phenylacetamido]-3-[(1-methyltetrazol-5-yl)thiomethyl]-3-cephem-4-carboxylic acid] | 3.13 µg/mL | 6.25 µg/mL | 25 µg/mL | 6.25 µg/mL | 6.25 µg/mL | ≤ 0.1 µg/mL |
| O=C(O)C1=C(CSc2nncs2)CS[C@@H]2[C@H](NC(=O)[C@H](NC(=O)c3coc4cc(O)c(O)cc4c3=O)c3ccc(O)cc3)C(=O)N12 [Example 19, 7β-[D-2-(6,7-Dihydroxychromone-3-carboxamido)-2-(4-hydroxyphenyl)acetamido]-3-[(1,3,4-thiadiazol-2-yl)thiomethyl]-3-cephem-4-carboxylic acid] | 0.2 µg/mL | 12.5 µg/mL | 0.4 µg/mL | 0.4 µg/mL | ≤ 0.1 µg/mL | 0.8 µg/mL |
| CCn1nnnc1SCC1=C(C(=O)O)N2C(=O)[C@@H](NC(=O)[C@H](NC(=O)c3coc4cc(O)c(O)cc4c3=O)c3ccc(O)cc3)[C@H]2SC1 [Example 20, 7β-[D-2-(6,7-Dihydroxychromone-3-carboxamido)-2-(4-hydroxyphenyl)acetamido]-3-[(1-ethyltetrazol-5-yl)thiomethyl]-3-cephem-4-carboxylic acid] | ≤ 0.1 µg/mL | 3.13 µg/mL | 0.2 µg/mL | 0.2 µg/mL | ≤ 0.1 µg/mL | 0.8 µg/mL |
| CN(C)CCn1nnnc1SCC1=C(C(=O)O)N2C(=O)[C@@H](NC(=O)[C@H](NC(=O)c3coc4cc(O)c(O)cc4c3=O)c3ccc(O)cc3)[C@H]2SC1 [Example 21, 7β-[D-2-(6,7-Dihydroxychromone-3-carboxamido)-2-(4-hydroxyphenyl)acetamido]-3-{[1-(2-dimethylaminoethyl)tetrazol-5-yl]-thiomethyl}-3-cephem-4-carboxylic acid] | ≤ 0.1 µg/mL | 12.5 µg/mL | 0.8 µg/mL | 0.4 µg/mL | ≤ 0.1 µg/mL | 1.56 µg/mL |
| O=C(O)C1=C(CSc2nnc[nH]2)CS[C@@H]2[C@H](NC(=O)[C@H](NC(=O)c3coc4cc(O)c(O)cc4c3=O)c3ccc(O)cc3)C(=O)N12 [Example 22] | 0.4 µg/mL | 50 µg/mL | 1.56 µg/mL | 1.56 µg/mL | ≤ 0.1 µg/mL | 3.13 µg/mL |
| O=C(O)Cn1nnnc1SCC1=C(C(=O)O)N2C(=O)[C@@H](NC(=O)[C@H](NC(=O)c3coc4cc(O)c(O)cc4c3=O)c3ccc(O)cc3)[C@H]2SC1 [Example 23] | ≤ 0.1 µg/mL | 12.5 µg/mL | 0.8 µg/mL | 0.4 µg/mL | ≤ 0.1 µg/mL | 3.13 µg/mL |
